# Source: patent publication US20120129769A1, “ORALLY ADMINISTERABLE PHARMACEUTICAL PREPARATION CONTAINING INSULIN” (priority 2009, published 2012)
# Key:
# [1] = Blood sugar after oral (feeding probe) insulin with or without ε-amino-caproic acid in starved rats (Example 1); type: in vivo, Male Wistar rats; conditions: n=4
# Experimental: (§1) Male Wistar rats (Charles-River Laboratories, Budapest, Hungary) were used for the experiments. Before the experiment the animals were starved for 16 hours. The experiments started between 8 and 9 h in the morning. 2×6 groups were formed in a random manner, with 4 animals by group. The animals were pretreated through a feeding probe according to the followings: group 1: with 1 g/kg of ε-amino-caproic acid; group 2: with 0.1 U/kg of insulin; group 3: with 0.1 U/kg of insulin and 1 g/kg of ε-amino-caproic acid; group 4: with 1.0 U/kg of insulin; group 5: with 1.0 U/kg of insulin and 1 g/kg of ε-amino-caproic acid; and group 6: with a solvent.
# [2] = Plasma insulin after oral (feeding probe) insulin with or without ε-amino-caproic acid in starved rats (Example 1); type: in vivo, Male Wistar rats; conditions: n=4
# Experimental: as §1
# [3] = Blood sugar (glucose oxidase method) after intraduodenal insulin-acepramin mixture with standard casein (Example 2); type: in vivo, male Wistar rats; conditions: mean±S.D., n=8
# Excerpt: (§2) Data: mean±S.D. with n=8 by group. Statistics: t-test with Bonferroni correction, after ANOVA.
# [4] = Plasma insulin immunoreactivity (radioimmunoassay) after intraduodenal insulin-acepramin mixture with standard casein (Example 2); conditions: mean±S.D., n=8
# Experimental: Healthy male Wistar rats (230-250 g) were given an ε-amino-caproic acid—human recombinant insulin mixture with standard casein intraduodenally. The endpoint of the measurement was the blood sugar measured with the glucose oxidase method, and the plasma insulin immunoreactivity measured with radioimmunoassay 15 and 60 minutes after the administration of the insulin-acepramin formulation (aqueous suspension).
# as §2
# α-chymotrypsin = α-chymotrypsin (Bos taurus, UniProt P00766); assay: In vitro stability of insulin in the presence of a protein degrading enzyme (reverse-phase HPLC); type: in vitro ADME; conditions: after 120 minutes; insulin 100 μM, α-chymotrypsin 1.5 μg/10 μl; FIG. 1
# Experimental: FIG. 1: Insulin (100 μM; native) stability in the presence of an equivalent quantity of insulin/ε-amino-caproic acid (acepramin, Sigma, MO) in a solution containing α-chymotrypsin (1.5 μg/10 μl).
# In vitro stability means the biodegradation of a primitive formulation of the insulin-acepramin mixture in the presence of a protein degrading enzyme, as compared to native insulin (results of reverse-phase HPLC tests).
# [5] = 15-minute values, insulin 0.1 IU/kg (combination: + 1 g/kg ε-amino-caproic acid)
# [6] = 15-minute values, insulin 1.0 IU/kg (combination: + 1 g/kg ε-amino-caproic acid)
# [7] = 60-minute values, insulin 0.1 IU/kg (combination: + 1 g/kg ε-amino-caproic acid)
# [8] = 60-minute values, insulin 1.0 IU/kg (combination: + 1 g/kg ε-amino-caproic acid)
molecule,measurement,setting,value
"insulin: biotechnologically produced human recombinant insulin, given alone (native, unformulated)",Blood sugar,[1]; [5],5.96 ± 0.21 mmol/L
same,Blood sugar,[1]; [6],5.77 ± 0.22 mmol/L
same,Blood sugar,[1]; [7],4.97 ± 0.40 mmol/L
same,Blood sugar,[1]; [8],4.67 ± 0.41 mmol/L
same,Plasma insulin,[2]; [5],10.75 ± 2.21 μU/ml
same,Plasma insulin,[2]; [6],38.25 ± 6.95 μU/ml
same,Plasma insulin,[2]; [7],10.8 ± 1.68 μU/ml
same,Plasma insulin,[2]; [8],23.87 ± 4.05 μU/ml
same,Blood sugar,"[3]; 15th minute, insulin 0.1 IU/kg (combination: + 100 mg/kg Acepramin), standard casein",7.9 ± 0.92 mmol/L
same,Blood sugar,"[3]; 15th minute, insulin 1.0 IU/kg (combination: + 100 mg/kg ε-amino-caproic acid), standard casein",7.7 ± 2.31 mmol/L
same,Blood sugar,"[3]; 60th minute, insulin 0.1 IU/kg (combination: + 100 mg/kg ε-amino-caproic acid), standard casein",7.9 ± 0.83 mmol/L
same,Blood sugar,"[3]; 60th minute, insulin 1.0 IU/kg (combination: + 100 mg/kg ε-amino-caproic acid), standard casein",6.9 ± 0.62 mmol/L
same,Plasma insulin,"[4]; 15th minute, insulin 0.1 IU/kg (combination: + 100 mg/kg Acepramin)",14.4 ± 1.51 μU/ml
same,Plasma insulin,"[4]; 15th minute, insulin 1.0 IU/kg (combination: + 100 mg/kg ε-amino-caproic acid)",27.5 ± 3.95 μU/ml
same,Plasma insulin,"[4]; 60th minute, insulin 0.1 IU/kg (combination: + 100 mg/kg ε-amino-caproic acid)",17.3 ± 2.94 μU/ml
same,Plasma insulin,"[4]; 60th minute, insulin 1.0 IU/kg (combination: + 100 mg/kg ε-amino-caproic acid)",17.1 ± 2.06 μU/ml
same,insulin degraded,α-chymotrypsin,more than 80%
"NCCCCCC(=O)O [ε-amino-caproic acid, reference compound]",Blood sugar,"[1]; 15-minute values, 1 g/kg ε-amino-caproic acid alone",5.43 ± 0.55 mmol/L
same,Blood sugar,"[1]; 60-minute values, 1 g/kg ε-amino-caproic acid alone",5.37 ± 0.15 mmol/L
same,Blood sugar,"[3]; 15th minute, 100 mg/kg ε-amino-caproic acid alone",6.9 ± 1.41 mmol/L
same,Blood sugar,"[3]; 60th minute, 100 mg/kg ε-amino-caproic acid alone",7.3 ± 0.95 mmol/L
